Source: PMC12490239, “Combining BET inhibition with SMAC mimetics restricts tumor growth and triggers immune surveillance in preclinical cancer models” (Cell Reports Medicine, 2025)

Tests used:
Assay in all cases: cells
Design in all cases: CellTiter-Glo 2.0 luminescence proliferation/viability assay, single agents, human tumour cell line panel
C106 = settings: 96 h; single agent; read-out: IC50 SMACm
Experimental: (§1) The effect of BETi, SMACm alone or in combination cell viability was determined using a 96-h CellTiter-Glo2.0 proliferation assay. Cells were seeded in assay plates and placed at 37°C with 5% CO2 for twenty-four hours before treatment. Compounds were added in triplicate in gradients of increasing concentrations, in case of SMACm ranging between 4.5 nM and 10 μM and in case of BETi between 1.4 nM and 3 μM. DMSO served as control. Cell viability was measured by luminescence analysis using luminescence read on Envision plate readers (PerkinElmer). An additional set of colorectal cancer cell lines was assayed with technical duplicates and experimental triplicates. Cell viability was measured by luminescence analysis using luminescence read on Tecan Plate reader. The effects of drug combinations were analyzed using the Bliss Independence Model.[34] Synergy score was calculated by the average of 3 highest and 3 lowest BLISS Gaps between predicted and measured POC (Percentage of Control) values. To investigate the synergistic interaction between BI 894999 (hereafter, BETi) and BI 891065 (hereafter, SMACm), we evaluated the in vitro anti-tumor effect of the single agents or the combination in a large panel of 151 cancer cell lines of different tissue origin: CRC, gastric cancer, non-small cell lung cancer (NSCLC), and pancreatic carcinoma (Figures 1C–1F). As a mono-agent, SMACm was able to inhibit cell proliferation only in a limited number of tested cell lines (4%, Table S2). Most of the cell lines responded to inhibition by BETi, with sensitivity ranging from 10 to 100 nM (Figure 1C). Bliss Gap analysis, performed to analyze the effect of the BETi+SMACm combination on tumor cell growth (Figures 1D–1F), unveiled potent synergistic activity across the cell models tested (Figure 1E), independent of tumor type (Figure 1F).  Figure 1 The combinatorial effect of BI 894999 and BI 891065 across a panel of human tumor cell lines (A) Selectivity and potency profiles of BI 891065. Top left, structure of BI 891065. Top right, IC50 values for BI 891065 inhibition of cIAP1, cIAP2, and XIAP. Bottom, physicochemical properties of […]. (B) WES (Simple Western System) analysis of cIAP1, cIAP2, and XIAP levels upon treatment of HT-29 cells with indicated concentrations of BI 891065 for 6 h (C) IC50 values determined in cell proliferation assays (n = 151) individually for BETi BI 894999 and SMACm BI 891065. Each point represents a cell line tested. (D) Example of proliferation assay for synergy analysis in LoVo cell line; shown is combination plate map matrix and the cell growth inhibition (CGI) at the indicated concentrations; CGI values < 100%: tumor cell growth, CGI 100%: tumor cell stasis, and CGI > 100%: tumor cell killing. (E) Synergy scores across the tested panel of cell lines obtained using Bliss synergy analysis. (F) Violin plots showing the synergy scores for BETi and SMACm combination across indications. N is the number of cell lines tested in each indication group.

C125PM = settings: 96 h; single agent; read-out: IC50 SMACm
Experimental: as §1

COCM1 = settings: CoCM-1, 96 h; single agent; read-out: IC50 SMACm
Experimental: as §1

Calu-1 = settings: Homo sapiens, Calu-1, 96 h; single agent; read-out: IC50 SMACm
Experimental: as §1

ChaGo-K-1 = settings: Homo sapiens, ChaGo-K-1, 96 h; single agent; read-out: IC50 SMACm
Experimental: as §1

HCA46 = settings: 96 h; single agent; read-out: IC50 SMACm
Experimental: as §1

HCC1195 = settings: 96 h; single agent; read-out: IC50 SMACm
Experimental: as §1

HLC-1 = settings: 96 h; single agent; read-out: IC50 SMACm
Experimental: as §1

LK-2 = settings: Homo sapiens, LK-2, 96 h; single agent; read-out: IC50 SMACm
Experimental: as §1

MDST8 = settings: MDST8, 96 h; single agent; read-out: IC50 SMACm
Experimental: as §1

NCI-H596 = settings: Homo sapiens, NCI-H596, 96 h; single agent; read-out: IC50 SMACm
Experimental: as §1

Panc 04.03 = settings: Homo sapiens, Panc 04.03, 96 h; single agent; read-out: IC50 SMACm
Experimental: as §1

SK-LU-1 = settings: Homo sapiens, SK-LU-1, 96 h; single agent; read-out: IC50 SMACm
Experimental: as §1

SNU1460 = settings: 96 h; single agent; read-out: IC50 SMACm
Experimental: as §1

SW1116 = settings: Homo sapiens, SW 1116, 96 h; single agent; read-out: IC50 SMACm
Experimental: as §1

IC50 (Calu-1): 8.41 µM
IC50 (HCC1195): 4.59 µM
IC50 (NCI-H596): 4.41 µM
IC50 (Panc 04.03): 4.68 µM
IC50 (SK-LU-1): 0.495 µM
IC50 (SNU1460): 3.15 µM
IC50 (SW1116): 4.51 µM
Structure (SMILES): CN[C@@H](C)C(=O)Nc1ccc(-c2c(-c3cccnc3OC)nc3cc(C)ccn23)c(C#Cc2ccc3c(C)nccc3c2)n1 [SMACm, BI 891065]
IC50 (C106): 1.6 µM
IC50 (C125PM): 1.26 µM
IC50 (COCM1): 7.58 µM
IC50 (ChaGo-K-1): 5.42 µM
IC50 (HCA46): 3.54 µM
IC50 (HLC-1): 5.83 µM
IC50 (LK-2): 4.15 µM
IC50 (MDST8): 4.78 µM
